Measurements: ChEMBL document CHEMBL1201862, “PubChem BioAssay data set” (2004)
Calls of active or inactive are those of the source.

Columns and labels:
Genome polyprotein = Genome polyprotein (Hepatitis C virus, UniProt Q2Q167); assay: HCV core protein dimerization inhibitors, dose response, biochemical, TR-FRET (AID 2159); parameters: species or system Hepacivirus hominis;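 note: blocks dimerization of HCV core protein measured by TR-FRET between tagged core106 pairs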
[1] = growth suppression of PTEN-null colon cells, dose response, cell-based, HCT116 PTEN knockout (AID 1047); type: functional;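 note: HCT116 colon tumor cells with PTEN knocked out; cells exposed to compound for 60 hours before readout; potency for loss of cell viability measured by luminescence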
[2] = growth suppression of beta-catenin-knockout colon cells, dose response, cell-based, HCT116, human colon tumor (AID 1045); type: functional;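 note: HCT116 colon tumor cells with beta catenin knocked out; cells exposed to compound for 60 hours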
[3] = growth induction of Burl-1 ts yeast mutant, dose response, counter-screen for SUMOylation pathway inhibitor project, whole organism, S. cerevisiae, luminescence (AID 463199); type: functional
cells [4] = type: functional, cell-based
cells [5] = type: functional, cell-based; remark: listed apart in the source
[6] = molecular target: Lysine-specific demethylase 4C (Homo sapiens, UniProt Q9H3R0); assay: GASC-1 (JMJD2C) histone demethylase inhibitors, dose response, biochemical, DELFIA europium, cherry-picked samples (AID 488835); type: functional
Sequence of Lysine-specific demethylase 4C (Q9H3R0 whole entry): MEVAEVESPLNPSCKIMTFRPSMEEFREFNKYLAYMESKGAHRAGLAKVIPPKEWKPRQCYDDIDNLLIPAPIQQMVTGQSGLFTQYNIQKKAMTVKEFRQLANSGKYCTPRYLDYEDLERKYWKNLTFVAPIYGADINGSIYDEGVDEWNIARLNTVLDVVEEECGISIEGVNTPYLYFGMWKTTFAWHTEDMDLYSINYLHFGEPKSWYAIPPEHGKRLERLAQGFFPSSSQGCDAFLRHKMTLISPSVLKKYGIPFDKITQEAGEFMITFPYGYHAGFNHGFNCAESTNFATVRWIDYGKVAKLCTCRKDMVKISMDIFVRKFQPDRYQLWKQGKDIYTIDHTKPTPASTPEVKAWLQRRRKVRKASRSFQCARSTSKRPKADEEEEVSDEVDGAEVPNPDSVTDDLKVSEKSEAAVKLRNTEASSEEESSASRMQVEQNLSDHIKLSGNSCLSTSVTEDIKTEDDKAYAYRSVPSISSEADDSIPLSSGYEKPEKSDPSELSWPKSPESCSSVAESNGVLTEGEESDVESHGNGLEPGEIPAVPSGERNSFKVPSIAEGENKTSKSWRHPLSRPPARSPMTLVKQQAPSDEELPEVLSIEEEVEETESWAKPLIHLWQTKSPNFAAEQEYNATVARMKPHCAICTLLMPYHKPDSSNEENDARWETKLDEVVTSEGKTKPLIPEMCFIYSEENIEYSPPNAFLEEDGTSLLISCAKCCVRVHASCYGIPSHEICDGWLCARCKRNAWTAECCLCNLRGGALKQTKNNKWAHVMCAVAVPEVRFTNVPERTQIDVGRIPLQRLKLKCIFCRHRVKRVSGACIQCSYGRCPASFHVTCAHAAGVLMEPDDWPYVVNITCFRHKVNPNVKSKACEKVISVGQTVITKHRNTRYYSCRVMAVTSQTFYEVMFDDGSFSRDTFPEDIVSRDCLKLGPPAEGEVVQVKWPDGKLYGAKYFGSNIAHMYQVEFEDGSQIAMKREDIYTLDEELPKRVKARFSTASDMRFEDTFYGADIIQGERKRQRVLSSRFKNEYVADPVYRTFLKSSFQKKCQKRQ

HEK293 = assay: inhibitors of LMP1-driven NF-kB reporter, dose response, cell-based, HEK293, luciferase, cherry-pick (AID 588343); type: functional; details: Homo sapiens
INS1 = assay: beta cell apoptosis inhibitors, cytokine rescue, dose response, luminescence, retest (AID 449756); type: functional, cell-based; details: Rattus norvegicus;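 note: cell death triggered by IL-1 beta plus TNF-alpha plus IFN-gamma mixture; protective hits raise ATP signal compared with cytokine alone wells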
Mu-type opioid receptor [7] = molecular target: T1, Mu-type opioid receptor (Homo sapiens, UniProt P35372); assay: MOR agonists by imaging, SAR follow-up, image-based (AID 2352); type: functional
T1 sequence (P35372 whole entry): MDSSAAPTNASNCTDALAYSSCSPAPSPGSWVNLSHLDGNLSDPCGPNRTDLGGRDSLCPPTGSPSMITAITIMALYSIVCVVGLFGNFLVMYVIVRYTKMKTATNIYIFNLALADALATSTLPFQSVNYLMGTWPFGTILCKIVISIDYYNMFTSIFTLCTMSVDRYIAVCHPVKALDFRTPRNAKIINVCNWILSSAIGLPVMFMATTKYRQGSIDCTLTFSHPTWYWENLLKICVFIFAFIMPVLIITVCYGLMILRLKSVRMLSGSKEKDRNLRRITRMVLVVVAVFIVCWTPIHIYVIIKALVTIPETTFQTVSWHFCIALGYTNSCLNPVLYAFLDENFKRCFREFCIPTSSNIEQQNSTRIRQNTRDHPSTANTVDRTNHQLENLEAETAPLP

[8] = molecular target: T2, Delta-type opioid receptor (Homo sapiens, UniProt P41143); assay: DOR agonists, SAR follow-up, image-based (AID 2370); type: functional
T2 sequence (P41143 whole entry): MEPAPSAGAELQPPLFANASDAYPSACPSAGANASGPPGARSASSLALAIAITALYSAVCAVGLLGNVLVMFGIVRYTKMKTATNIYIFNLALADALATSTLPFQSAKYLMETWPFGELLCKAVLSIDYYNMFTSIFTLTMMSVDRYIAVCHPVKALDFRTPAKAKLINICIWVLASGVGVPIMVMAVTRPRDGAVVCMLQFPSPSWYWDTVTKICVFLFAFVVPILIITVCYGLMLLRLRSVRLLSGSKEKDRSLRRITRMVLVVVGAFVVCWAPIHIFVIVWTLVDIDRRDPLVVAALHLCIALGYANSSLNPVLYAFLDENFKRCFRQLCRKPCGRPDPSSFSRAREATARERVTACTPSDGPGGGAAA

[9] = molecular target: T3, Kappa-type opioid receptor (Homo sapiens, UniProt P41145); assay: KOR antagonists by imaging, SAR follow-up, image-based (AID 2348); type: functional
T3 sequence (P41145 whole entry): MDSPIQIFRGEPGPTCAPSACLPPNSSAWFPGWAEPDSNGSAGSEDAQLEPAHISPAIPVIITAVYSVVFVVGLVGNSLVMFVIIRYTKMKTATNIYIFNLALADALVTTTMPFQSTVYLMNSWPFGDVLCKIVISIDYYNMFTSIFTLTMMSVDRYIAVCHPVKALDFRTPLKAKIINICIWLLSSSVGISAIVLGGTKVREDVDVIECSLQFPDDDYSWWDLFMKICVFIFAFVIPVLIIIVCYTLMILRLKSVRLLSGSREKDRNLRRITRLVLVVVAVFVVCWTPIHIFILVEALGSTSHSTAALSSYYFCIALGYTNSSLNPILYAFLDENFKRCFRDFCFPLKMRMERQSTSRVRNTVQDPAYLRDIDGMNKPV

Mu-type opioid receptor [10] = molecular target: T1, Mu-type opioid receptor; assay: MOR antagonists, SAR follow-up, image-based (AID 2420); type: functional;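 note: compounds added before stimulation of receptor with agonist DAMGO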
[11] = molecular target: T3, Kappa-type opioid receptor; assay: KOR agonist analogs, imaging readout, SAR follow-up, image-based (AID 2359); type: functional
[12] = molecular target: T2, Delta-type opioid receptor; assay: DOR antagonists, SAR follow-up, image-based (AID 2357); type: functional
[13] = molecular target: T3, Kappa-type opioid receptor; assay: kappa opioid receptor blockers, cell-based, luminescence, beta-arrestin, SAR follow-up (AID 2285); type: functional
Exodeoxyribonuclease V = Exodeoxyribonuclease V (Escherichia coli (strain K12), UniProt P04993+P07648+P08394); assay: E. coli RecBCD inhibitors, dose response, counter-screen for AddAB inhibitor project, absorbance, V66 E. coli, mutant T4 phage (AID 492957); type: functional, cell-based, Escherichia coli str. K-12 substr. MG1655
Caspase-3 = molecular target: T4, Caspase-3 (Homo sapiens, UniProt P42574); type: functional;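 note: Dose-response selectivity test against caspase-3 for candidate inhibitors of sentrin-specific proteases (SENPs)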
T4 sequence (P42574 whole entry): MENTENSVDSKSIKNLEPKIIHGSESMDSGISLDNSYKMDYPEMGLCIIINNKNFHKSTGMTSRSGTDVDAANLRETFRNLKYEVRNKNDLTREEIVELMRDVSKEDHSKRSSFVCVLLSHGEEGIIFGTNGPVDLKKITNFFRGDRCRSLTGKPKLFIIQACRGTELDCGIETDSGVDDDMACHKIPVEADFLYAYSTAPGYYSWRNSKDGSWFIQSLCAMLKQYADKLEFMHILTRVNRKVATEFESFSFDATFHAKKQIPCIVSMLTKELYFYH

[14] = molecular target: T5, Sentrin-specific protease 7 (Homo sapiens, UniProt Q9BQF6); type: functional;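 note: Luminescence-based dose-response confirmation of ultra-high-throughput screening hits, measuring inhibition of SENP7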
T5 sequence (Q9BQF6 whole entry): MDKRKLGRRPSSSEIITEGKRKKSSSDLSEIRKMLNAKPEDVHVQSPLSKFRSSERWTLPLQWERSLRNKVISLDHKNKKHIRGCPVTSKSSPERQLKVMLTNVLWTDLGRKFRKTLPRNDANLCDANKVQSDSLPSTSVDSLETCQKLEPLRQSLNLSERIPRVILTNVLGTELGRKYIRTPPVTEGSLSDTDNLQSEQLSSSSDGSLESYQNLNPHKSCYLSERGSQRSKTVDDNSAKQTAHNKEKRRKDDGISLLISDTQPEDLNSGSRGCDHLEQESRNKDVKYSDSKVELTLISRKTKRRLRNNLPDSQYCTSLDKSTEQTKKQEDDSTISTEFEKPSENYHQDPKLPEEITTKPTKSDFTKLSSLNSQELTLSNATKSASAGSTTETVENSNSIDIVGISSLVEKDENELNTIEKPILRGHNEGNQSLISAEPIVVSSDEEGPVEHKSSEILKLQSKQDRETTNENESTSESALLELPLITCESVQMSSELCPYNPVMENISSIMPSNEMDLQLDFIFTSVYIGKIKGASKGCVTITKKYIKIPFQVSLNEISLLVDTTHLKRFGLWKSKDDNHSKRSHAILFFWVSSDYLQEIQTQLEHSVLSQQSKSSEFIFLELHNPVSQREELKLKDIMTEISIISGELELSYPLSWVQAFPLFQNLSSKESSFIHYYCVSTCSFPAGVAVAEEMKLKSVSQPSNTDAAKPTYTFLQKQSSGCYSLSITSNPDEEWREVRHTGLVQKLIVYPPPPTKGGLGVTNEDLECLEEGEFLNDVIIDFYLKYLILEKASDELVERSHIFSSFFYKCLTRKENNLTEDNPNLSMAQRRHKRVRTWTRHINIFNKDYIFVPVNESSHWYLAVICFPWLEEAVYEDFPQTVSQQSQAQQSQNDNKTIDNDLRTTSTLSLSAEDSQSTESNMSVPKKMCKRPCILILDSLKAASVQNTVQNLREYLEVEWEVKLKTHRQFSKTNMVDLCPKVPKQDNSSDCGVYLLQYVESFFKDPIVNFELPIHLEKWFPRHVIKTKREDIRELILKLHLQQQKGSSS

[15] = molecular target: T6, Sentrin-specific protease 6 (Homo sapiens, UniProt Q9GZR1); type: functional;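 note: Luminescence-based dose-response confirmatory assay of SENP6 inhibition, following up an ultra-high-throughput screen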
T6 sequence (Q9GZR1 whole entry): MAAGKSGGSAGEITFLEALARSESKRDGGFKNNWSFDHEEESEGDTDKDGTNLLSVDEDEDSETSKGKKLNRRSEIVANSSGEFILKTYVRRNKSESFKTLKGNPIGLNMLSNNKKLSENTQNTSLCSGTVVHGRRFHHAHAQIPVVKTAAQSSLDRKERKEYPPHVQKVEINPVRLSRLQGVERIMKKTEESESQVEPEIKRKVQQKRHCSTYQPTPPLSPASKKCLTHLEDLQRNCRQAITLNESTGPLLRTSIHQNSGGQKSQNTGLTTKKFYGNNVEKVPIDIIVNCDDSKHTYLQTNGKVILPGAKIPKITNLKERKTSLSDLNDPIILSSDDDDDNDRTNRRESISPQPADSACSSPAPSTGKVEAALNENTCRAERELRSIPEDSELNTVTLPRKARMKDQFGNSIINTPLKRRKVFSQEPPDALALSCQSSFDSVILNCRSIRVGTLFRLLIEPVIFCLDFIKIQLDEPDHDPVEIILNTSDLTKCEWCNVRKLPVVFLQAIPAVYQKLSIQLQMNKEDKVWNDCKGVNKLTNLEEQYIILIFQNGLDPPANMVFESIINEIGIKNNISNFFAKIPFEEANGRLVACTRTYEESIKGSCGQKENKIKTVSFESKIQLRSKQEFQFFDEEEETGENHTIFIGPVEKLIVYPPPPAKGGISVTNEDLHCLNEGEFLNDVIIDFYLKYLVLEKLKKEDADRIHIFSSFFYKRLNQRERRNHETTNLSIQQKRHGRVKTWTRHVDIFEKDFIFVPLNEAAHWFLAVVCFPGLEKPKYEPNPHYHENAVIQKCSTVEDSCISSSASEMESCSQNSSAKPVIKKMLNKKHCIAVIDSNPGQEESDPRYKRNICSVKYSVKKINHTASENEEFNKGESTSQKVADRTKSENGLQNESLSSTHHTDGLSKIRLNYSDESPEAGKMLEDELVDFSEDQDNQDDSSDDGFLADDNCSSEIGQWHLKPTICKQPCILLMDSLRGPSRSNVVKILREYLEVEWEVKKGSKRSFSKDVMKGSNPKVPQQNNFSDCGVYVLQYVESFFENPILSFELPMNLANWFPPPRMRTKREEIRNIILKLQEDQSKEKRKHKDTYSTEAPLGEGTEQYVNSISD

[16] = molecular target: T7, Sentrin-specific protease 8 (Homo sapiens, UniProt Q96LD8); type: functional;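 note: luminescence read-out of SENP8 inhibition, dose-response confirmation following an ultra-high-throughput screen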
T7 sequence (Q96LD8 whole entry): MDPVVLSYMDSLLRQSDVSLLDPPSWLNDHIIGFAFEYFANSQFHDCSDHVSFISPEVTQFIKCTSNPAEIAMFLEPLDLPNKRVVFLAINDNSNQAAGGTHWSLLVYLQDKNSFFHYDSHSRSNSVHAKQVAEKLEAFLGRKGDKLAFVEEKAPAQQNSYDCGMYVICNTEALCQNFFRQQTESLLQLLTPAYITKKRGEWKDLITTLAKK

[17] = Counterscreen for AddAB inhibitors: absorbance-based bacterial cell-based high throughput dose response assay for inhibitors of bacterial viability. [Related pubchem assays (depositor defined):AID435030, AID449728, AID449731, AID488942, AID488955, AID488956]; type: functional
[18] = molecular target: Mitochondrial peptide methionine sulfoxide reductase (Bos taurus, UniProt P54149); assay: Absorbance-based biochemical high throughput dose response assay for activators of Methionine sulfoxide reductase A (MsrA).; type: functional
Sequence of Mitochondrial peptide methionine sulfoxide reductase (P54149 whole entry, the tested form may be a part): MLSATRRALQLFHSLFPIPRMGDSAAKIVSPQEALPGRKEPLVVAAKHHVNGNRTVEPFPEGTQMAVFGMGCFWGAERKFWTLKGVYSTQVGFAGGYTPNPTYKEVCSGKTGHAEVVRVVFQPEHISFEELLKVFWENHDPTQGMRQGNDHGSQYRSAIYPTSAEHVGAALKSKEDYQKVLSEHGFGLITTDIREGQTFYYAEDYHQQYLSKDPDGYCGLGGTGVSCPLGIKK

[19] = HIV-1 Env-mediated cell fusion inhibitors, dose response, CCR5-tropic Env (AID 2279); type: functional
[20] = molecular target: G-protein coupled receptor 55 (Homo sapiens, UniProt Q9Y2T6); assay: GPR55 antagonists, SAR follow-up, counter-screen for GPR35 antagonist project, imaging, image-based (AID 2397); type: functional
Sequence of G-protein coupled receptor 55 (Q9Y2T6 whole entry): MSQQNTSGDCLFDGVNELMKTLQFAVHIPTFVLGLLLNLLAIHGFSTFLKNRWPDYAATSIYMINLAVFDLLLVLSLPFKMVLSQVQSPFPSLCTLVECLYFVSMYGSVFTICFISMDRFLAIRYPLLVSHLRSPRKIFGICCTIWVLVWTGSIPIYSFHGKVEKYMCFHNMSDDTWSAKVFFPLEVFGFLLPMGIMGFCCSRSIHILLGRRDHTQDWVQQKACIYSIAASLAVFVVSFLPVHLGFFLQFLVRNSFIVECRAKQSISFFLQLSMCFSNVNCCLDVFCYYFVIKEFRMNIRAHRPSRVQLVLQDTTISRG

[21] = molecular target: T8, Probable nicotinate-nucleotide adenylyltransferase (Staphylococcus aureus (strain N315), UniProt P65502); type: functional, Staphylococcus aureus subsp. aureus N315;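 for IC50 Mean: confirmatory dose-response retesting of NadD inhibitor hits first found in an ultra-high-throughput screen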
T8 sequence (P65502 whole entry): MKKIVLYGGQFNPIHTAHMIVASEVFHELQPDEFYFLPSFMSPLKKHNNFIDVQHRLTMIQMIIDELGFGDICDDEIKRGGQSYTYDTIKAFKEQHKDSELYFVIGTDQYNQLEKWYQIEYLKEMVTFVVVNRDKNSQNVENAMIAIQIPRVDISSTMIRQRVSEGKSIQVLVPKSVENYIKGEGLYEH

[22] = molecular target: T8, Probable nicotinate-nucleotide adenylyltransferase; type: functional, Staphylococcus aureus subsp. aureus N315; details: read-out: IC50_Mean

Sequence of Genome polyprotein (Q2Q167 whole entry): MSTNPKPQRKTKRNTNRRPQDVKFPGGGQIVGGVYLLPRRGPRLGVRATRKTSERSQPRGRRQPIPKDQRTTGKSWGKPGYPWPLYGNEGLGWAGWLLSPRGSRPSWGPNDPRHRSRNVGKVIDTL

O=C(N/N=C/C(Br)=C/c1ccccc1)c1[nH]nc2c1CCC2
IC50 (Genome polyprotein): > 49.8 µM (not active) | EC50 [1]: < 0.059 µM (active) | EC50 [2]: < 0.059 µM (active) | AC50 [3]: 120 µM (active)

COc1cccc(/C=N/Nc2nc3ccccc3[nH]2)c1O
EC50 (cells [4]): > 350 µM (not active) | EC50 (cells [5]): 26.6 µM (active) | AC50 [6]: 8.63 µM (active) | AC50 (HEK293): 3.34 µM (active) | AC50 (INS1): 2.22 µM (active)

CC(=O)c1ccc(S(=O)(=O)NCc2ccc(C(=O)N(C)CC(=O)Nc3cccc(F)c3)cc2)cc1
EC50 (Mu-type opioid receptor [7]): > 32 µM (inactive) | EC50 [8]: > 32 µM (inactive) | IC50 [9]: > 32 µM (inactive) | IC50 (Mu-type opioid receptor [10]): > 32 µM (inactive) | EC50 [11]: > 32 µM (inactive) | IC50 [12]: > 32 µM (inactive) | IC50 [13]: > 10 µM (inactive)

O=C(COC(=O)c1ccc([N+](=O)[O-])s1)c1ccc[nH]1
IC50 (Exodeoxyribonuclease V): > 119 µM (inactive) | IC50 (Caspase-3): 10.2 µM (active) | IC50 [14]: 18.4 µM (active) | IC50 [15]: 6.52 µM (active) | IC50 [16]: 5.37 µM (active) | IC50 [17]: 104 µM (inactive) | EC50 [18]: 15.8 µM (inactive)

CCC(Sc1nc2ccsc2c(=O)n1Cc1ccc(C(=O)O)cc1)C(=O)Nc1ccc(C)c(Cl)c1 (configuration not stated)
IC50 [19]: 47.7 µM (active) | IC50 [20]: 14.9 µM (inactive) | IC50 [21]: 6.61 µM (active) | IC50 [22]: 38.6 µM (active)
